From patent US20120034193A1, “TREATMENT OF NEUROTROPHIC FACTOR MEDIATED DISORDERS” (priority 2009, published 2012)
Where a name gives a salt, the structure may show the parent alone.

Tests used:
C57b1/6 RJ mice = experiment: Sciatic nerve crush model; assay type: in vivo, Mouse; details: 10 μg/kg/day i.p.; nerve crush alone 109.10 ± 2.65
Description: The sciatic nerve crush model is a well characterised reversible model for motor neurone disease and post-traumatic nerve injuries (McMahon and Priestley, Current Opinion in Neurobiology, 1995, 5, pp. 616-624). The nerve damage is produced by mechanical pressure using haemostatic forceps, applied twice, 5 mm proximal to the trifurcation of the right sciatic nerve of these mice. […] The loss of nerve function recovers progressively over a 4-5 week period after the mechanical insult.
4-Methylcatechol (10 μg/kg/day, i.p.) was used as a positive control (Kaechi et al., Journal of Phamacology and Experimental Therapeutics, 1995, 272, pp. 1300-1304).
C57b1/6 RJ mice were anaesthetised with ketamine chlorhydrate (60 mg/kg, i.p.). The sciatic nerve was surgically exposed at mid thigh level and crushed at 5 mm proximal to the trifurcation of the sciatic nerve. The nerve was crushed twice for 30 s with a haemostatic forceps with a 90-degree rotation between each crush. […] The loss of nerve function recovered progressively over a 4-5 week period after mechanical insult. Electromyographic recordings were assessed as described above.

trkB mRNA = trkB mRNA expression in rat cortical neurones under basal conditions (rt RT-PCR); assay type: cell-based; details: 0.5 mM
Procedure: (§1) Rat cortical neurones were cultured by modification of a method previously described (Singer, et al., Neuroscience Letters, 1996, 212, pp. 13-16). Twelve days after the start of culturing, sarsasapogenin (30 nM), smilagenin (30 nM), 4-methylcatechol (0.5 mM), an inducer of NGF and BDNF release (Saporito et al., Experimental Neurology., 1993, 123, pp. 295-302; Nitta et al., Journal of Pharmacology and Experimental Therapeutics, 1999, 291, pp. 1276-1283) or vehicle (dimethyl sulfoxide, DMSO, 0.25%) were added for 1, 3 or 6 h. After incubation the total messenger ribonucleic acid (mRNA) was quantified using real time reverse transcription-polymerase chain reaction (rt RT-PCR).

BDNF mRNA = BDNF mRNA expression in rat cortical neurones under basal conditions (rt RT-PCR); assay type: cell-based; details: 0.5 mM
Procedure: as §1

pmn mice = details: literature; CNTF i.p. CNTF-secreting cells, Xaliproden oral from birth, CGP 3466B oral at onset; cited from earlier work
[1] = test system: Rat spinal motor neurones; experiment: Neuronal survival and neurite outgrowth in spinal motor neurones; assay type: cell-based; details: 3 days
Procedure: Rat spinal motor neurones were prepared according to a previously described method (Martinou et al, Neuron, 8, 737-744, 1992). Following 3 days of culturing with sarsasapogenin, smilagenin, vehicle (DMSO, 0.25%), Xaliproden, or BDNF, spinal cord motor neurones were washed twice in PBS, fixed in a cold solution of alcohol (95%) and acetic acid (5%) for 5 min and then rinsed 3 times in PBS. Neurones were stained using a monoclonal antibody anti β-tubulin and an anti mouse Immunoglobulin G. These antibodies stained neurone cell bodies (quantifying the neuroprotective effect) and neurites (quantifying the neurotrophic effect). The cell nuclei were stained by a fluorescent marker. After 1 h of incubation, cells were washed 3 times in PBS. […] A series of pictures were taken using a camera controlled by computer software. All the images were taken under the same conditions. Analyses of the number of cells labelled with anti β-tubulin antibodies and of the total number of cells (number of stained nuclei) were performed using LUCIA 6.0 software.

[2] = test system: rat primary cortical neurones; experiment: Inhibition of induced neurite outgrowth by K252a or PD98059; assay type: cell-based
Procedure: (§2) Cortical neurones were cultured as detailed above. Neurones were exposed to vehicle (DMSO, 0.25%) or K252a (100 nM) for 1 h. After 1 h, vehicle, sarsasapogenin, smilagenin (30 nM) or BDNF (1.85 nM) was added to the medium in the maintained presence of K252a. Following 24 h exposure to sarsasapogenin or smilagenin (30 nM), vehicle (DMSO, 0.25%) or BDNF (1.85 nM), the neurones were washed using phosphate-buffered saline (PBS) and fixed in glutaraldehyde (2.5%) in PBS. Photographs of 40-60 neurones expressing neurites were taken with a camera fixed on a microscope (objective ×20, Nikon). The neurite length was measured by an analysis of the photographs.
as §2, with “PD98059 (10 μM)” for “K252a (100 nM)”, “vehicle,” for “vehicle, sarsasapogenin,”, “PD98059.” for “K252a.”, “to” for “to sarsasapogenin or”, “PBS” for “phosphate-buffered saline (PBS)”

[3] = test system: rat primary cortical neurones; experiment: Pre-treatment against glutamate-induced damage (LDH) in cortical neurones; assay type: cell-based; details: 24 h before and 24 h after glutamate 100 μM 10 min
Procedure: Exposure of rat primary cortical neurones to glutamate increases lactate dehydrogenase (LDH) activity measured 24 h after glutamate exposure, indicating significant neuronal damage. Rat cortical neurones were cultured by modification of a method previously described (Singer, et al., Neuroscience Letters, 1996, 212, pp. 13-16). On day 10 of culture, the medium was changed to a serum-free defined medium. On day 12, the cultures were washed and placed for 24 h in fresh medium containing test compound or vehicle (DMSO, 0.25%). On day 13 neurones were exposed to glutamate (100 μM; 10 min) at 37° C. The cultures were then washed with, and placed in, fresh medium supplemented with test compound or vehicle for a further 24 h before LDH was measured. Neuronal damage was assessed by measuring LDH activity in the media at 24 h after glutamate exposure.

Rat cortical neurones [4] = experiment: Neuritogenesis in cortical neurones; assay type: cell-based; details: 3 nM, 24 h
Procedure: Rat cortical neurones were cultured by modification of a previously described method (Singer, et al., Neuroscience Letters, 1996, 212, pp. 13-16). Cells were cultured with sarsasapogenin, smilagenin, vehicle (DMSO 0.25%), GDNF, BDNF or NGF for 24 h. For each group, 15 pictures showing neurones displaying neurites were selected at random in each field, and for each neurone the longest neurite was measured. The neurite number was measured by counting the number of neurones displaying neurites, the number of neurones not displaying neurites and the number of total neurones in each field. Six fields per well were examined.
The results are shown in Table 15 below, expressed as the number of neurones with neurites per field as a percentage of the total number of neurones per field.

[5] = test system: Rat spinal motor neurones; experiment: Reversal of glutamate-induced damage in spinal motor neurones; assay type: cell-based; details: 3 nM for 48 h after glutamate 4 μM 10 min
Procedure: The rat spinal motor neurones were prepared as detailed above. On day 10, the medium was removed and the cultures exposed to glutamate (4 μM) for 10 min at 37° C. in 5% CO2/95% air atmosphere in defined medium. After the glutamate exposure, cultures were washed with DMEM at 37° C. then placed in fresh culture medium containing sarsasapogenin, smilagenin, vehicle or BDNF. After 48 h, the extent of motor neurone damage was determined as detailed above. This Example develops the work reported in Example 8 of PCT patent application No. WO-A-03/082893.

Rat cortical neurones [6] = experiment: Neuronal survival and neurite outgrowth of cortical neurones cultured in the absence of serum; assay type: cell-based; details: 3 nM, one day, no serum
Procedure: Rat cortical neurones were cultured following the method described above.
The test compounds were added for 24 h.
Rat cortical neurones were exposed to sarsasapogenin, smilagenin (30 nM) or vehicle (DMSO, 0.25%) in the absence FBS or FCS for one day. Cortical neurones were stained using a monoclonal antibody anti β-tubulin diluted and an anti mouse Immunoglobulin G diluted. These antibodies stained neurone cell bodies (quantifying the neuroprotective effect) and neurites (quantifying the neurotrophic effect). An epifluorecence microscope (magnification ×20) with a camera took 2 pictures per well (10 pictures per condition). Analyses of the number of cells labelled with anti β-tubulin antibodies and of the total number of cells was performed using LUCIA 6.0 software.

Cc1ccc(O)c(O)c1 [4-Methylcatechol, reference compound]
Degenerated fibres (% of control) (C57b1/6 RJ mice): −7.48 ± 1.62 % of control
trkB mRNA, % increase above control (trkB mRNA; 1 h): No increase
trkB mRNA, % increase above control (trkB mRNA; 3 h): No increase
trkB mRNA, % increase above control (trkB mRNA; 6 h): No increase
BDNF mRNA, % increase above control (BDNF mRNA; 1 h): No increase
BDNF mRNA, % increase above control (BDNF mRNA; 3 h): No increase
BDNF mRNA, % increase above control (BDNF mRNA; 6 h): 92%

FC(F)(F)c1cccc(C2=CCN(CCc3ccc4ccccc4c3)CC2)c1 [Xaliproden, 1-[2-(naphth-2-yl)ethyl]-4-(3-trifluoromethylphenyl)-1,2,5,6-tetra-hydropyri-dine hydrochloride, reference compound]
Increase of survival time / lifespan of pmn mice (pmn mice): ~50%
Neurite outgrowth (% of control) ([1]; 30 nM): 137.57 ± 11.69 % of control
Neuronal survival (% of control) ([1]; 30 nM): 110.95 ± 2.14 % of control
Neurite outgrowth (% of control) ([1]; 100 nM): 137.55 ± 6.76 % of control
Neuronal survival (% of control) ([1]; 100 nM): 111.18 ± 2.85 % of control
Neurite outgrowth (% of control) ([1]; 300 nM): 131.22 ± 7.93 % of control
Neuronal survival (% of control) ([1]; 300 nM): 109.47 ± 3.34 % of control

COc1cccc(-c2cc(=O)c3ccccc3o2)c1N [PD98059, reference compound]
Neurite length (% of control) ([2]; PD98059 10 μM alone (control with PD98059)): 96.08 ± 2.47 % of control

Cc1c(C)c2c(c(C)c1O)CC[C@@](C)(C(=O)N1CCN(c3ccc(N=C(N)c4cccs4)cc3)CC1)O2 [BN 80933]
Increase of survival time / lifespan of pmn mice (pmn mice): 40%

COC(=O)[C@@]1(O)C[C@H]2O[C@]1(C)n1c3ccccc3c3c4c(c5c6ccccc6n2c5c31)C(=O)NC4 [K252a, reference compound]
Neurite length (% of control) ([2]; K252a 100 nM alone (control with K252a)): 95.22 ± 3.10 % of control

C#CCN(C)CC1=Cc2ccccc2Oc2ccccc21.O=C(O)/C=C\C(=O)O [CGP 3466B]
Increase of survival time / lifespan of pmn mice (pmn mice): 57%

C[C@@H]1CC[C@@]2(OC1)O[C@H]1C[C@H]3[C@@H]4CC=C5C[C@@H](O)CC[C@]5(C)[C@H]4CC[C@]3(C)[C@H]1[C@@H]2C [diosgenin, reference compound]
Neuronal survival (% of control) ([3]; 3 nM): 69.43 ± 1.76 % of control
Neuronal survival (% of control) ([3]; 10 nM): 66.51 ± 5.13 % of control
Neuronal survival (% of control) ([3]; 30 nM): 68.98 ± 5.39 % of control
Neuronal survival (% of control) ([3]; 100 nM): 70.95 ± 5.03 % of control
Neuronal survival (% of control) ([3]; 300 nM): 75.02 ± 2.68 % of control

B1: CNTF: ciliary neurotrophic factor; i.p. administration of CNTF-secreting cells (protein, UniProt P26441 1-200, looked up)
Ciliary neurotrophic factor: MAFTEHSPLTPHRRDLCSRSIWLARKIRSDLTALTESYVKHQGLNKNINLDSADGMPVASTDQWSELTEAERLQENLQAYRTFHVLLARLLEDQQVHFTPTEGDFHQAIHTLLLQVAAFAYQIEELMILLEYKIPRNEADGMPINVGDGGLFEKKLWGLKVLQELSQWTVRSIHDLRFISSHQTGIPARGSHYIANNKKM
modifications: secreted by cells
Increase of survival time / lifespan of pmn mice (pmn mice): 40%

B2: BDNF: brain-derived neurotrophic factor (protein, UniProt P23560 19-247, looked up)
Neurotrophic factor BDNF …: APMKEANIRGQGGLAYPGVRTHGTLESVNGPKAGSRGLTSLADTFEHVIEELLDEDQKVRPNEENNKDADLYTSRVMLSSQVPLEPPLLFLLEEYKNYLDAANMSMRVRRHSDPARRGELSVCDSISEWVTAADKKTAVDMSGGTVTVLEKVPVSKGQLKQYFYETKCNPMGYTKEGCRGIDKRHWNSQCRTTQSYVRALTMDSKKRIGWRFIRIDTSCVCTLTIKRGR
Neurite length (% of control) (Rat cortical neurones [4]): 162.34 ± 5.91 % of control
Neurones displaying neurites (%) (Rat cortical neurones [4]; control 39.35 ± 2.06): 48.06 ± 2.17 %
Neurite length (% of control) ([2]; 1.85 nM, 24 h, no inhibitor): 125.30 ± 5.80^++++ % of control
Neurite length (% of control) ([2]; 1.85 nM, 24 h, with K252a (100 nM)): 87.31 ± 2.20 % of control
Neurite length (% of control) ([2]; 1.85 nM, 24 h, with PD98059 (10 μM)): 99.07 ± 5.15 % of control
Neurite outgrowth (% of control) ([1]; 1.85 nM): 176.91 ± 7.25 % of control
Neuronal survival (% of control) ([1]; 1.85 nM): 126.15 ± 1.60 % of control
Neuronal survival (% of control) [5]: 106.60 ± 6.14 % of control
Neurite outgrowth (% of control) (Rat cortical neurones [6]): 146.84 ± 9.27 % of control
Neuronal survival (% of control) (Rat cortical neurones [6]): 162.75 ± 5.61 % of control
